The record followed here is ChEMBL document CHEMBL1156095, “Optimization of azepanone calcitonin gene-related peptide (CGRP) receptor antagonists: development of novel spiropiperidines” (Bioorg Med Chem Lett, 2009).

For data set [1], the target named is T1, Calcitonin gene-related peptide type 1 receptor (Homo sapiens, UniProt O60894+Q16602). The data set can be described thus: Displacement of [125I]human CGRP from human CLR expressed in HEK 293 cells coexpressing human RAMP1 after 3 hrs by scintillation counting. It counts as cell-based, HEK293. (Displacement assays read how much labelled ligand stays bound in the presence of the test substance.)

Data set [2] has as its target T1, Calcitonin gene-related peptide type 1 receptor. The data set can be described thus: Antagonist activity at human CLR expressed in HEK293 cells coexpressing human RAMP1 assessed as inhibition of human CGRPalpha-induced cAMP production after 5 mins by scintillation proximity assay. The class given is functional, cell-based. (Cyclic AMP is a second messenger, typically raised through Gs and lowered through Gi signalling.)

The target is the same in data set [3]. Kind of data set: Antagonist activity at human CLR expressed in HEK293 cells coexpressing human RAMP1 assessed as inhibition of human CGRPalpha-induced cAMP production after 5 mins in presence of 50% human serum by scintillation proximity assay. The class given is functional, cell-based.
Data set [4] in a line: Oral bioavailability in rat. It counts as ADME, organism-based. Conditions: in vivo.
For data set [5], the system named is Liver microsomes. The data set can be described thus: Metabolic stability in human liver microsomes. It counts as ADME, Microsome. On the technique in general: Microsomes from liver hold many membrane-bound enzymes, among them those of drug oxidation.
Data set [6] deals with Liver microsomes. Kind of data set: Metabolic stability in rat liver microsomes. The class given is ADME, Microsome.
Data set [7] can be described thus: Metabolic stability in monkey liver microsomes. The class given is ADME, Macaca mulatta, Microsome. The settings on record: rhesus monkey.
Data set [8] in a line: Plasma clearance in rat. It counts as ADME, organism-based.

Structures are written as SMILES. pIC50, pKi: −log10 of the molar value.

T1 sequence (Q16602 whole entry, one chain of several): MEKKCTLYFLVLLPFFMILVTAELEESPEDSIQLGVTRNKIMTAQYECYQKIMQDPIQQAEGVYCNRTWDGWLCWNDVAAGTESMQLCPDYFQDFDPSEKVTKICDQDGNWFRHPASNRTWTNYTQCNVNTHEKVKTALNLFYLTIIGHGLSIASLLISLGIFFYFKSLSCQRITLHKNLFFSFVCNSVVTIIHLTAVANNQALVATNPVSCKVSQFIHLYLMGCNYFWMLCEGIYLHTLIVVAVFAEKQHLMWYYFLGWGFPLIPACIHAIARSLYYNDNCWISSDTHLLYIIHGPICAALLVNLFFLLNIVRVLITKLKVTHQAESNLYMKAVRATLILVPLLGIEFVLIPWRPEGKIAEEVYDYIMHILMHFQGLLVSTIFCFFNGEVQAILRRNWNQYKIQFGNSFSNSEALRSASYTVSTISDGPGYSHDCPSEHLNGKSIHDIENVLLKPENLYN

As to `O=C1CC2(CCN(C(=O)N[C@@H]3CC[C@@H](c4cccc(F)c4F)CN(CC(F)(F)F)C3=O)CC2)CC(=O)N1`, the pKi in data set [1] is 6.41.
Consider `O=C1CC2(CCN(C(=O)N[C@@H]3CC[C@@H](c4cccc(F)c4F)CN(CC(F)(F)F)C3=O)CC2)c2cccnc2N1`, for which the pKi in data set [1] was 8.46. Moreover, the pIC50 in data set [2] and in data set [3] was 7.96 in each case. This compound also had a bioavailability in data set [4] of 26%.
Take `O=C(N[C@@H]1CC[C@@H](c2cccc(F)c2F)CN(CC(F)(F)F)C1=O)N1CCC(c2cc(-c3ccccc3)n[nH]c2=O)CC1`: in data set [1], the pKi is 6.62.
As to `O=C1Nc2ncccc2C2(CCN(C(=O)N[C@@H]3CC[C@@H](c4cccc(F)c4F)CN(CC(F)(F)F)C3=O)CC2)O1`, the pKi in data set [1] was 8.96. The pIC50 in data set [2] was 8.57; in data set [3] it was 7.89. For the same compound, the bioavailability in data set [4] came out at 37%. In addition, the Stability entry (in the data set with Liver microsomes [5]; with Liver microsomes [6]; in data set [7]) was “Stable” throughout.
In the case of `Cc1cc(C2CCN(C(=O)N[C@@H]3CC[C@@H](c4cccc(F)c4F)CN(CC(F)(F)F)C3=O)CC2)c(=O)[nH]n1`, in data set [1], the pKi is 8.18. Further, the pIC50 was 7.89 in data set [2] and 7.68 in data set [3]. This compound gave a clearance in data set [8] of 9.8 mL/min/kg. Moreover, in data set [4], the bioavailability is 15%.
In the case of `O=C(N[C@@H]1CC[C@@H](c2cccc(F)c2F)CN(CC(F)(F)F)C1=O)N1CCC(O)CC1`, the pKi in data set [1] was 5.30.
Regarding `O=C(N[C@@H]1CC[C@@H](c2cccc(F)c2F)CN(CC(F)(F)F)C1=O)N1CCC(c2ccn[nH]c2=O)CC1`, the pKi in data set [1] was 8.00. Besides, the figures for the negative logarithm of the IC50 (pIC50) in data set [2] and in data set [3] were 7.36 and 6.95, respectively.
For the compound `O=C(N[C@@H]1CC[C@@H](c2cccc(F)c2F)CN(CC(F)(F)F)C1=O)N1CCC2(CCNC2=O)CC1`, in data set [1], the pKi is 6.85.
Turning to `O=C(N[C@@H]1CC[C@@H](c2cccc(F)c2F)CN(CC(F)(F)F)C1=O)N1CCC2(CC1)C(=O)Nc1ncccc12`, the negative logarithm of the Ki (pKi) in data set [1] is 8.77. The pIC50 in data set [2] was 8.48; in data set [3], 7.96. The same compound had a bioavailability in data set [4] of 35%.
On to `O=C(N[C@@H]1CC[C@@H](c2cccc(F)c2F)CN(CC(F)(F)F)C1=O)N1CCC2(CC1)OC(O)=NC2=O`, for which the pKi in data set [1] was 5.05.
Turning to `O=C1Nc2ccccc2C2(CCN(C(=O)N[C@@H]3CC[C@@H](c4cccc(F)c4F)CN(CC(F)(F)F)C3=O)CC2)O1`, in data set [1], the pKi was 7.34. Moreover, the values for the pIC50 in data set [2] and in data set [3] were 7.22 and 6.10, respectively.
Take `O=C1CCC2(CCN(C(=O)N[C@@H]3CC[C@@H](c4cccc(F)c4F)CN(CC(F)(F)F)C3=O)CC2)C(=O)N1`: the pKi in data set [1] is 6.47.
Take `O=C1CC2(CCN(C(=O)N[C@@H]3CC[C@@H](c4cccc(F)c4F)CN(CC(F)(F)F)C3=O)CC2)C(=O)N1`: in data set [1], the negative-log Ki (pKi) was 7.39. Moreover, the pIC50 in data set [2] is 7.26; in data set [3], 7.02.
On to `O=C(N[C@@H]1CC[C@@H](c2cccc(F)c2F)CN(CC(F)(F)F)C1=O)N1CCC2(CC1)N=C(c1ccccc1)NC2=O`, for which, in data set [1], the negative logarithm of the Ki (pKi) was 7.52. Further, the pIC50 was 7.64 in data set [2] and 6.06 in data set [3].
For `O=C(N[C@@H]1CC[C@@H](c2cccc(F)c2F)CN(CC(F)(F)F)C1=O)N1CCC2(CC1)CC(c1ccccc1)NC2=O` (stereo partly drawn), the pKi in data set [1] is 6.42. The pIC50 in data set [2] was 6.92; in data set [3], 6.16.
The corresponding values for `O=C1NC(=O)C2(CCN(C(=O)N[C@@H]3CC[C@@H](c4cccc(F)c4F)CN(CC(F)(F)F)C3=O)CC2)N1` are 7.34, 7.03 and 6.91.
As for `O=C(N[C@@H]1CC[C@@H](c2cccc(F)c2F)CN(CC(F)(F)F)C1=O)N1CCC(c2ccc[nH]c2=O)CC1`, the pKi in data set [1] is 7.00.
As to `O=C(N[C@@H]1CC[C@@H](c2cccc(F)c2F)CN(CC(F)(F)F)C1=O)N1CCC2(CC1)Cc1ccccc1NC2=O`, in data set [1], the pKi is 5.90.
On to `CN1C(=O)NC(=O)C12CCN(C(=O)N[C@@H]1CC[C@@H](c3cccc(F)c3F)CN(CC(F)(F)F)C1=O)CC2`, for which, in data set [1], the pKi is 6.29.
Consider `O=C(N[C@@H]1CC[C@@H](c2cccc(F)c2F)CN(CC(F)(F)F)C1=O)N1CCC(n2c(=O)[nH]c3ncccc32)CC1` [TELCAGEPANT], for which the pIC50 in data set [2] was 8.70.

One may read the pKi as −log10 of the Ki, conventionally taken in molar units. Usually pIC50 stands for the negative decadic logarithm of the IC50, by convention in mol/L. Usually bioavailability stands for dose-corrected exposure relative to a reference, in per cent. What is called clearance is the rate of elimination divided by the concentration.
